Reference: ChEMBL document CHEMBL1126484, “Backbone modified formyl-methionyl tripeptide chemoattractants” (1993)
Where a SMILES comes first, the peptide text is derived from it.

Key:
Format in all cases: functional
Oryctolagus cuniculus [1] = species on record: Oryctolagus cuniculus; experiment: Effective dose to induce the secretion of beta-glucosaminidase from cytochalasin beta-treated rabbit peritoneal polymorphonuclear leukocytes (neutrophils); details: read-out: ED50 (the source's name)
Oryctolagus cuniculus [2] = species on record: Oryctolagus cuniculus; experiment: Relative potency with respect to HCO-L-Met-L-Leu-L-Phe-OMe (1) was determined
Oryctolagus cuniculus [3] = species on record: Oryctolagus cuniculus; experiment: Maximum percentage induction of the secretion of beta-glucosaminidase from cytochalasin beta-treated rabbit peritoneal polymorphonuclear leukocytes (neutrophils)

| SMILES | EC50 (Oryctolagus cuniculus [1]) [nM] | Relative potency (Oryctolagus cuniculus [2]) | Max (Oryctolagus cuniculus [3]) [%] |
| --- | --- | --- | --- |
| CC[C@](C)(NC(=O)[C@H](CCSC)NC=O)C(=O)N[C@@H](Cc1ccccc1)C(=O)OC | 0.17 | 0.4 | 32 |
| COC(=O)[C@H](Cc1ccccc1)NC(=O)[C@@](C)(NC(=O)[C@H](CCSC)NC=O)C(C)C | 0.027 | 2.5 | 32 |
| COC(=O)[C@H](Cc1ccccc1)NC(=O)[C@](C)(NC(=O)[C@H](CCSC)NC=O)C(C)C | 0.11 | 0.62 | 38 |
| CSCC[C@H](NC=O)C(=O)N[C@@H](CC(C)C)C(=O)N[C@@H](Cc1ccccc1)C(=O)O | 0.13 | 0.52 | 37 |
| COC(=O)[C@H](Cc1ccccc1)NC(=O)C(C)(C)NC(=O)[C@H](CCSC)NC=O (HELM PEPTIDE1{[O=C[*:2]].M.[Aib].F.[CO[*:1]]}$$$$V2.0) | 1.4 | 0.049 | 39 |
| COC(=O)[C@H](Cc1ccccc1)NC(=O)[C@](C)(CC(C)C)NC(=O)[C@H](CCSC)NC=O | 0.027 | 2.5 | 42 |
| COC(=O)[C@H](Cc1ccccc1)NC(=O)[C@@](C)(CC(C)C)NC(=O)[C@H](CCSC)NC=O | 0.052 | 1.3 | 42 |
| COC(=O)[C@H](Cc1ccccc1)NC(=O)[C@@H](CC(C)C)NC(=O)[C@H](CCSC)NC=O | 36 | 0.0019 | 38 |
| CC[C@@](C)(NC(=O)[C@H](CCSC)NC=O)C(=O)N[C@@H](Cc1ccccc1)C(=O)OC | 0.48 | 0.14 | 42 |
| COC(=O)[C@H](Cc1ccccc1)NC(=O)[C@H](CC(C)C)NC(=O)[C@H](CCSC)NC=O | 0.068 | – | 42 |
